Measured values from patent publication US20240216357A1 (SICHUAN HUIYU PHARMACEUTICAL CO., LTD., priority 2021, published 2024).
Where a name gives a salt, the structure may show the parent alone. Read-outs that look alike come from different tables or passages of the source.

Tests used:
LSD1 = LSD1 (Homo sapiens (Human), UniProt O60341); assay: LSD1 enzyme activity detection (HTRF); format: biochemical; conditions: read-out: Inhibition of enzymatic activity of LSD1 IC50
NCI-H1417 cells = assay: In vitro cell proliferation detection (CellTiter-Glo, 7 days); format: cell-based; conditions: Homo sapiens, 168 h; NCI-H1417 cells, 7 days, CellTiter-Glo; read-out: NCI-H1417 proliferation inhibition IC50

SMILES	IC50 (LSD1; HTRF, H3K4me1 substrate)	IC50 (NCI-H1417 cells)	IC50 (LSD1)
Cc1ccc(-c2c(-c3ccc(C#N)cc3)cc3c(N4CCC(N)CC4)nccn23)cc1 [Example 193, 4-(1-(4-aminopiperidin-1-yl)-6-(p-tolyl)pyrrolo[1,2-a]pyrazin-7-yl)benzonitrile hydrochloride]	1.72 nM	61.4 nM	–
N#Cc1ccc(-c2nc(N3C4CCC3CC(N)C4)n3ccnc3c2-c2ccc(F)c(O)c2)cc1F (stereo not drawn) [Example 157, 4-(5-(3-amino-8-azabicyclo [3.2.1]octane-8-yl)-8-(4-fluoro-3-hydroxyphenyl)imidazolo [1,2-c]pyrimidin-7-yl)-2-fluorobenzonitrile hydrochloride]	0.3 ± 0.3 nM	2.05 nM	–
CNC1CCN(c2nc(-c3ccc(C#N)c(F)c3)c(-c3ccc(OC)c(O)c3)c3nccn23)CC1 [Example 138, 2-fluoro-4-(8-(3-hydroxy-4-methoxyphenyl)-5-(4-(methylamino)piperidin-1-yl)imidazolo[1,2-c]pyrimidin-7-yl)benzonitrile hydrochloride]	0.1 ± 0.05 nM	0.305 nM	–
Cc1ccc(-c2c(O)cc(N(C)CCCN)nc2-c2ccc(C#N)c(F)c2)cc1O [Example 63, 4-(6-((3-aminopropyl)(methyl)amino)-4-hydroxy-3-(3-hydroxy-4-methylphenyl)pyridin-2-yl)-2-fluorobenzonitrile hydrochloride]	5.1 ± 0.4 nM	192 nM	–
COc1ccc(-c2cnc(N3CCC(N)CC3)c(C#N)c2-c2ccc(C#N)c(F)c2)cc1F [Example 68, 2-(4-aminopiperidin-1-yl)-4-(4-cyano-3-fluorophenyl)-5-(3-fluoro-4-methoxyphenyl) nicotinonitrile hydrochloride]	3.4 ± 1.3 nM	6.92 nM	–
CNC1CCCN(c2nc(OC)c(-c3ccc(OC)c(F)c3)c(-c3ccc(C#N)c(F)c3)n2)C1 (stereo not drawn) [Example 114, 2-fluoro-4-(5-(3-fluoro-4-methoxyphenyl)-6-methoxy-2-(3-(methylamino)piperidin-1-yl)pyrimidin-4-yl)benzonitrile hydrochloride]	–	> 1000 nM	67 nM
Cc1noc2cc(-c3c(-c4ccc(C#N)c(F)c4)nc(N4CCC(N)CC4)c4ncoc34)c(F)cc12 [Example 279, 4-(4-(4-aminopiperidin-1-yl)-7-(5-fluoro-3-methylbenzo[d]isoxazol-6-yl)oxazolo[4,5-c]pyridin-6-yl)-2-fluorobenzonitrile]	2.27 nM	6.61 nM	–
COc1ccc(-c2c(-c3ccc(C#N)c(F)c3)nc(N3CCC(N)CC3)c3[nH]ncc23)cc1O [Example 287, 4-(7-(4-aminopiperidin-1-yl)-4-(3-hydroxy-4-methoxyphenyl)-1H-pyrazolo[3,4-c]pyridin-5-yl)-2-fluorobenzonitrile hydrochloride]	0.265 nM	5.97 nM	–
Cc1noc2cc(-c3c(-c4ccc(C#N)c(F)c4)nc(N4CCC(N)CC4)c4[nH]ncc34)c(F)cc12 [Example 288, 4-(7-(4-aminopiperidin-1-yl)-4-(5-fluoro-3-methylbenzo[d]isoxazol-6-yl)-1H-pyrazole[3,4-c]pyridin-5-yl)-2-fluorobenzonitrile hydrochloride]	0.591 nM	6.33 nM	–
COc1ccc(-c2c(-c3ccc(C#N)c(O)c3)nc(N3C4CCC3CC(N)C4)n3ccnc23)cc1F (stereo not drawn) [Example 185, 4-(5-(3-amino-8-azabicyclo[3.2.1]octane-8-yl)-8-(3-fluoro-4-methoxyphenyl)imidazolo[1,2-c]pyrimidin-7-yl)-2-hydroxybenzonitrile]	14.1 nM	160 nM	–
N#Cc1ccc(-c2c(-c3ccc(N4CCOCC4)c(O)c3)cnc(N3CCC(N)CC3)c2C#N)cc1F [Example 85, 2-(4-aminopiperidin-1-yl)-4-(4-cyano-3-fluorophenyl)-5-(3-hydroxy-4-morpholinophenyl) nicotinonitrile hydrochloride]	0.6 nM	0.76 nM	–
N#Cc1ccc(-c2nc(N3C4CCC3CC(N)C4)n3ccnc3c2-c2cc3c(cc2F)CCN3)cc1F (stereo not drawn) [Example 171]	1.9 ± 1.5 nM	6 nM	–
N#Cc1ccc(-c2nc(N3CCC(N)CC3)n3ccnc3c2-c2ccn3ccnc3c2)cc1F [Example 131, 4-(5-(4-aminopiperidin-1-yl)-8-(imidazolo [1,2-a]pyridin-7-yl)imidazolo[1,2-c]pyrimidin-7-yl)-2-fluorobenzonitrile]	4.46 ± 0.09 nM	80.7 nM	–
Cn1ccc2cc(F)c(-c3c(-c4ccc(C#N)c(F)c4)nc(N4C5CCC4CC(N)C5)n4ccnc34)cc21 (stereo not drawn) [Example 174, 4-(5-(3-amino-8-azabicyclo[3.2.1]octane-8-yl)-8-(5-fluoro-1-methyl-1H-indole-6-yl)imidazolo [1,2-c]pyrimidin-7-yl)-2-fluoro benzonitrile]	13.2 nM	14.4 nM	–
CC1(N)CCN(c2nc(-c3ccc(C#N)c(F)c3)c(-c3ccc(OC(F)(F)F)c(O)c3)c3nccn23)CC1 [Example 152, 4-(5-(4-amino-4-methylpiperidin-1-yl)-8-(3-hydroxy-4-(trifluoromethoxy)phenyl)imidazolo [1,2-c]pyrimidin-7-yl)-2-fluorobenzonitrile]	23.5 nM	12.4 nM	–
COc1cc(N2CCC(N)CC2)nc(-c2ccc(C#N)c(F)c2)c1-c1ccc(F)c(O)c1 [Example 91, 4-(6-(4-aminopiperidin-1-yl)-3-(4-fluoro-3-hydroxyphenyl)-4-methoxypyridin-2-yl)-2-fluorobenzonitrile]	1.1 ± 0.3 nM	1.82 nM	–
N#Cc1ccc(-c2nc(N3CCC(N)CC3)n3ccnc3c2-c2ccc(OC(F)(F)F)c(F)c2)cc1F [Example 130, 4-(5-(4-aminopiperidin-1-yl)-8-(3-fluoro-4-(trifluoromethoxy)phenyl)imidazolo [1,2-c]pyrimidin-7-yl)-2-fluorobenzonitrile]	10.7 nM	17.6 nM	–
COc1ccc(-c2c(-c3ccc(C#N)c(F)c3)nc(N3CC4CCC(C3)C4N)n3ccnc23)cc1O (stereo not drawn) [Example 161, 4-(5-(8-amino-3-azabicyclo[3. 2.1]octane-3-yl)-8-(3-hydroxy-4-methoxyphenyl)imidazolo[1,2-c]pyrimidin-7-yl)-2-fluorobenzonitrile hydrochloride]	3.9 ± 0.2 nM	8.37 nM	–
COc1ccc(-c2c(O)cc(N3CC[C@@H](N)[C@H](OC)C3)nc2-c2ccc(C#N)c(F)c2)cc1F [Example 51, 4-(6-((3R,4R)-4-amino-3-methoxypiperidin-1-yl)-3-(3-fluoro-4-methoxyphenyl)-4-hydroxypyridin-2-yl)-2-fluorobenzonitrile]	64 ± 20 nM	88.2 nM	–
COc1ccc(-c2c(-c3ccc(C#N)c(F)c3)nc(N(C)CCCN)n3ccnc23)cc1O [Example 144, 4-(5-((3-aminopropyl) (methyl)amino)-8-(3-hydroxy-4-methoxyphenyl)imidazolo[1,2-c]pyrimidin-7-yl)-2-fluorobenzonitrile]	1.6 ± 0.2 nM	18.2 nM	–
Cn1ccc(-c2cnc(N3CCC(N)CC3)c(C#N)c2-c2ccc(C#N)c(F)c2)cc1=O [Example 83, 6-(4-aminopiperidin-1-yl)-4-(4-cyano-3-fluorophenyl)-1′-methyl-2′-oxo-1′,2′-dihydro-[3,4′-bipyridine]-5-carbonitrile hydrochloride]	35.4 nM	630 nM	–
